Source: ChEMBL document CHEMBL1909046, “DrugMatrix in vitro pharmacology data”

Key:
[1] = DRUGMATRIX: Atrial Natriuretic Factor (ANF) radioligand binding (ligand: [125I] ANF (rat)); type: cell membranes, Cavia porcellus, Dunkin-Hartley, Adrenal gland, Membrane; conditions: Not Active = under 50% inhibition at 10 µM
[2] = molecular target: T1, 5-hydroxytryptamine receptor 2C (Homo sapiens, UniProt P28335); experiment: DRUGMATRIX: Serotonin (5-Hydroxytryptamine) 5-HT2C radioligand binding (ligand: [3H] Mesulergine); type: cell membranes, CHO-K1, Membrane; conditions: Not Active = under 50% inhibition at 10 µM; for Ki: read-out: Ki
T1 sequence (P28335 whole entry): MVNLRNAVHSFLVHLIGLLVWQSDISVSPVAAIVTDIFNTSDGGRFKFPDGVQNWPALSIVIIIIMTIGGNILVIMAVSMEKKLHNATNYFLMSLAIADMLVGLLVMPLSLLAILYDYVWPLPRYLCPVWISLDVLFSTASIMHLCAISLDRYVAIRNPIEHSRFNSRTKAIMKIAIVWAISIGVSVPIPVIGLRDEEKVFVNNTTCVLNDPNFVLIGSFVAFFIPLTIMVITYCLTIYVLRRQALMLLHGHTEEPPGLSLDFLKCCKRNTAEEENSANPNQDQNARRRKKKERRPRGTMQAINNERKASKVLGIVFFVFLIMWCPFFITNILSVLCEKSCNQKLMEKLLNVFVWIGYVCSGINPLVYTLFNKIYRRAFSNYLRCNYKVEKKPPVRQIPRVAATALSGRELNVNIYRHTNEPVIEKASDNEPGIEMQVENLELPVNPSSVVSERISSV

Neutrophil elastase = molecular target: T2, Neutrophil elastase (Homo sapiens, UniProt P08246); type: tissue-based;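 note: inhibition of neutrophil elastase enzyme activity, measured with a p-nitroanilide-linked peptide substrate; in other assays of this panel Not Active means under 50% inhibition at 10 µM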
T2 sequence (P08246 whole entry): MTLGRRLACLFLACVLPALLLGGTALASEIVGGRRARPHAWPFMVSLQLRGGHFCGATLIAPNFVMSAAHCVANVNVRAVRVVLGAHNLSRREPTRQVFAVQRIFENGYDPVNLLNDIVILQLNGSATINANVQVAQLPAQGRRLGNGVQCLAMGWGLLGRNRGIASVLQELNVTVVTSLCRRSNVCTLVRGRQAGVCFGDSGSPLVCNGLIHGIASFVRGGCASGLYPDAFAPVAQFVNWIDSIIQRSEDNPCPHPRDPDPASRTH

Adenosine receptor A3 = molecular target: T3, Adenosine receptor A3 (Homo sapiens, UniProt P0DMS8); type: cell membranes, CHO-K1, Membrane; conditions: for Ki: read-out: Ki;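 for all read-outs here: radioligand binding assay with AB-MECA serving as the labeled ligand; in other assays of this panel Not Active means under 50% inhibition at 10 µM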
T3 sequence (P0DMS8 whole entry): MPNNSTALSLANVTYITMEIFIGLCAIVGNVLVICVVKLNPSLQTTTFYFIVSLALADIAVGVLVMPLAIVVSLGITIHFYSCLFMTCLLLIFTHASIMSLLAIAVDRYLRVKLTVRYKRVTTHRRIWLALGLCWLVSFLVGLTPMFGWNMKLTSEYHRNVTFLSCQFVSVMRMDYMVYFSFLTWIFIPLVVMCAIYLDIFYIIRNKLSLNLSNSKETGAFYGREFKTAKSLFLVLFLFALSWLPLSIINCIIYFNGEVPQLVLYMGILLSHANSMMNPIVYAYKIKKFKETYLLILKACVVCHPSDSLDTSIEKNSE

[3] = molecular target: Sigma non-opioid intracellular receptor 1 (Homo sapiens, UniProt Q99720); experiment: DRUGMATRIX: Sigma1 radioligand binding (ligand: [3H] Haloperidol); type: cell membranes, Jurkat, Membrane; conditions: Not Active = under 50% inhibition at 10 µM; for Ki: read-out: Ki
[4] = molecular target: T4, Nitric oxide synthase, inducible (Mus musculus, UniProt P29477); parameters: species or system Escherichia coli;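 note: inhibition of iNOS enzyme activity measured with L-arginine as substrate; in other assays of this panel Not Active means under 50% inhibition at 10 µM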
T4 sequence (P29477 whole entry): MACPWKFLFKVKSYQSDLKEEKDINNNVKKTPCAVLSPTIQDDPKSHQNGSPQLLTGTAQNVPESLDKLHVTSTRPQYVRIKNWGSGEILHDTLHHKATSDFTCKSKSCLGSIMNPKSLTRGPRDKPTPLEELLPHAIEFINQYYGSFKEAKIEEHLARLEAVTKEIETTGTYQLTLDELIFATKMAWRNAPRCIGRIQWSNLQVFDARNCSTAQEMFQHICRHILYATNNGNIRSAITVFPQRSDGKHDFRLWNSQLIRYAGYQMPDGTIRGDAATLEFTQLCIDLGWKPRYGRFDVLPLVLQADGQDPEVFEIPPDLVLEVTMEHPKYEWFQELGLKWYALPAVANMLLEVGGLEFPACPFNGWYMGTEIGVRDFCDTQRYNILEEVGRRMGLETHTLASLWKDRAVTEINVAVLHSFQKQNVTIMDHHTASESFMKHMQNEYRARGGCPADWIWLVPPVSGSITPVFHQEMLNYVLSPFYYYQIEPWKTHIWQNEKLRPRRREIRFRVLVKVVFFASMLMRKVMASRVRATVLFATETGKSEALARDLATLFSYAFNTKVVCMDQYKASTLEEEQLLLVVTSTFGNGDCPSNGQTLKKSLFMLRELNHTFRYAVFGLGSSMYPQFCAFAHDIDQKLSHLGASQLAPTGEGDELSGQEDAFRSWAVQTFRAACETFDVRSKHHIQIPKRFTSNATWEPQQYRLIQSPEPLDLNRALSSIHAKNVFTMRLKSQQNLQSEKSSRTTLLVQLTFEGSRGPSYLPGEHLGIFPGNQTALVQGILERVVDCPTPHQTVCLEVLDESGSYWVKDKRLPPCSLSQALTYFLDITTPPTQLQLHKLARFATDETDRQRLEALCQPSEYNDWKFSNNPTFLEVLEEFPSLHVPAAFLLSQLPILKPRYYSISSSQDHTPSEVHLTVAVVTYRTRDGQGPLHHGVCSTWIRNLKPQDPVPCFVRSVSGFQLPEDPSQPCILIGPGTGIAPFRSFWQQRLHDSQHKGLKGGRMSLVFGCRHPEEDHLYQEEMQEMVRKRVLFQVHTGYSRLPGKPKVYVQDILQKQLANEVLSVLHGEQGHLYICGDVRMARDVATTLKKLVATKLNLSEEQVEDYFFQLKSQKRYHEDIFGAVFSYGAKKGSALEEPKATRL

[5] = molecular target: Protein phosphatase 3 catalytic subunit alpha (Homo sapiens, UniProt Q08209); parameters: species or system Escherichia coli;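 note: inhibition of calcineurin (PP2B) enzyme activity, measured with DiFMUP as the substrate; in other assays of this panel Not Active means under 50% inhibition at 10 µM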

Sigma non-opioid intracellular receptor 1, sequence (Q99720 whole entry): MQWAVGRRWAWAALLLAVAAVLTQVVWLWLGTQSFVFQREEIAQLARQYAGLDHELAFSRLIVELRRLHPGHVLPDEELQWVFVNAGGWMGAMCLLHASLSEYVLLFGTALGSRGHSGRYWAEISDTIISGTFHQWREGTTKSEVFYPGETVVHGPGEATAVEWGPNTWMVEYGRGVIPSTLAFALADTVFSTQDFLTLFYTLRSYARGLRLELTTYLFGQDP

Row | Structure (SMILES) | IC50 [1] | Ki [1] | IC50 ([2]; read-out: IC50) | Ki [2] | IC50 (Neutrophil elastase) | IC50 (Adenosine receptor A3; read-out: IC50) | Ki (Adenosine receptor A3) | IC50 ([3]; jurkat) | IC50 [4] | IC50 [5] | IC50 (Adenosine receptor A3; cho-k1) | IC50 ([2]; cho-k1) | IC50 ([3]; read-out: IC50) | Ki [3]
1 | Cc1c(C)c2c(c(C)c1O)CCC(C)(CN1CCN(c3cc(N4CCCC4)nc(N4CCCC4)n3)CC1)O2 (stereo unspecified) | Not Active | Not Active | 7560 nM | 3960 nM | Not Active | 10.8 µM | 6.08 µM | Not Active | Not Active | Not Active |  |  |  | 
2 | COc1ccc(CCN(C)CCCC(C#N)(c2ccc(OC)c(OC)c2)C(C)C)cc1OC (stereo unspecified) | Not Active | Not Active |  |  | Not Active |  |  | Not Active | Not Active | Not Active | Not Active |  |  | 
3 | CC(C)Cc1ccc([C@@H](C)C(=O)O)cc1 [(R)-IBUPROPHEN] | Not Active | Not Active |  |  | Not Active |  |  | Not Active | Not Active | Not Active | Not Active | Not Active |  | 
4 | CN(C)CCOC(c1ccccc1)c1ccccc1 [DIPHENHYDRAMINE] |  |  |  |  | Not Active |  |  | Not Active | Not Active | Not Active | Not Active |  |  | 
5 | Clc1ccc(COC(Cn2ccnc2)c2ccc(Cl)cc2Cl)cc1 (stereo unspecified) [ECONAZOLE] |  |  |  |  | Not Active |  |  |  | Not Active | Not Active |  |  | 21.1 µM | 8.87 µM
6 | CCN(CC)CCOc1ccc(/C(=C(/Cl)c2ccccc2)c2ccccc2)cc1 [ENCLOMIPHENE] |  |  | 1270 nM | 666 nM | Not Active |  |  |  | Not Active | Not Active |  |  |  | 
7 | Fc1ccc(C(c2ccc(F)cc2)N2CCN(C/C=C/c3ccccc3)CC2)cc1 [FLUNARIZINE] |  |  | 669 nM | 351 nM | Not Active | 5.2 µM | 2.94 µM |  | Not Active | Not Active |  |  | 0.025 µM | 0.01 µM
8 | CNCCC(Oc1ccc(C(F)(F)F)cc1)c1ccccc1 (stereo unspecified) [FLUOXETINE] |  |  |  |  | Not Active |  |  |  | Not Active | Not Active | Not Active |  |  | 
9 | Cc1ccc(NC(=O)c2ccc(CN3CCN(C)CC3)cc2)cc1Nc1nccc(-c2cccnc2)n1 [IMATINIB] |  |  |  |  | Not Active |  |  | Not Active | Not Active | Not Active | Not Active | Not Active |  | 
10 | CC(C)Oc1ccc2c(=O)c(-c3ccccc3)coc2c1 [IPRIFLAVONE] | Not Active | Not Active |  |  | Not Active |  |  | Not Active | Not Active | Not Active | Not Active | Not Active |  | 
11 | CC(C)NCC(O)c1ccc(O)c(O)c1 (stereo unspecified) [ISOPROTERENOL] | Not Active | Not Active |  |  | Not Active |  |  | Not Active | Not Active | Not Active | Not Active | Not Active |  | 
12 | CNC1(c2ccccc2Cl)CCCCC1=O (stereo unspecified) [KETAMINE] | Not Active | Not Active |  |  | Not Active |  |  | Not Active | Not Active | Not Active | Not Active | Not Active |  | 
13 | N#Cc1ccc(C(c2ccc(C#N)cc2)n2cncn2)cc1 [LETROZOLE] | Not Active | Not Active |  |  | Not Active |  |  | Not Active | Not Active | Not Active | Not Active | Not Active |  | 
14 | CCN1CCC[C@H]1CNC(=O)c1cc(S(N)(=O)=O)ccc1OC [LEVOSULPIRIDE] | Not Active | Not Active |  |  | Not Active |  |  | Not Active | Not Active | Not Active | Not Active | Not Active |  | 
15 | CCN(CC)CC(=O)Nc1c(C)cccc1C [LIDOCAINE] | Not Active | Not Active |  |  | Not Active |  |  | Not Active | Not Active | Not Active | Not Active | Not Active |  | 
16 | O=C1Nc2ccc(Cl)cc2C(c2ccccc2Cl)=NC1O (stereo unspecified) [LORAZEPAM] | Not Active | Not Active |  |  | Not Active |  |  | Not Active | Not Active | Not Active | Not Active | Not Active |  | 
17 | CO[C@@H]1[C@@H](OC)[C@H](C)[C@@](O)(CC(=O)O)O[C@H]1[C@H](C)[C@H]1O[C@@]2(CC[C@@](C)([C@H]3CC[C@@](C)([C@@H]4O[C@@H]([C@H]5O[C@](C)(O)[C@H](C)C[C@@H]5C)C[C@@H]4O[C@@H]4C[C@H](OC)[C@@H](OC)[C@H](C)O4)O3)O2)C[C@H](O)[C@H]1C [MADURAMICIN ACID] | Not Active | Not Active | 34 nM | 18 nM | Not Active |  |  | Not Active | Not Active | Not Active | Not Active |  |  | 
18 | COc1c2occc2cc2ccc(=O)oc12 [METHOXSALEN] | Not Active | Not Active |  |  | Not Active |  |  | Not Active | Not Active | Not Active | Not Active | Not Active |  | 
19 | C[C@H]1C[C@@H]2[C@H]([C@@H](O)C[C@@]3(C)[C@H]2CC[C@]3(O)C(=O)CO)[C@@]2(C)C=CC(=O)C=C12 [METHYLPREDNISOLONE] | Not Active | Not Active |  |  | Not Active |  |  | Not Active | Not Active | Not Active | Not Active | Not Active |  | 
20 | Cc1cccc(C)c1OCC(C)N (stereo unspecified) [MEXILETINE] | Not Active | Not Active |  |  | Not Active |  |  | Not Active | Not Active | Not Active | Not Active | Not Active |  | 
21 | Nc1cc(N2CCCCC2)nc(N)[n+]1[O-] [MINOXIDIL] | Not Active | Not Active |  |  | Not Active |  |  | Not Active | Not Active | Not Active | Not Active | Not Active |  | 
22 | CN[C@H]1CC[C@@H](c2ccc(Cl)c(Cl)c2)c2ccccc21 [SERTRALINE] |  |  | 1080 nM |  | Not Active |  |  |  | Not Active | Not Active | Not Active |  |  | 
